Counter-ions that a name gives are not always drawn.

The test addresses 5L hepatoma cell line (Rattus norvegicus). Put plainly: Survival of rat 5L hepatoma cells after 48 hrs by MTS reduction assay. Background: Tetrazolium dyes change colour on reduction, which living cells bring about.
`CN(C)CCO/N=C1/C(c2c(O)[nH]c3c(Br)cccc23)=Nc2ccccc21` [(2'Z,3'E)-7-bromoindirubin-3'-[O-(2-dimethylaminoethyl)oxime] hydrochloride] gave an IC50 above 30 µM.

In the case of `CN(C)CCO/N=C1/C(c2c(O)[nH]c3c(Br)cccc23)=Nc2ccccc21` [(2'Z,3'E)-7-bromoindirubin-3'-[O-(2-dimethylaminoethyl)oxime]], the IC50 was determined as 25 µM.

In turn, `Oc1[nH]c2c(Br)cccc2c1C1=Nc2ccccc2/C1=N\OCCN1CCCC1` [(2'Z,3'E)-7-bromoindirubin-3'-[O-(2-pyrrolidin-1-ylethyl)oxime] hydrochloride] came in with an IC50 above 30 µM.

What is called IC50 is the concentration that inhibits the measured activity by half.

The values are drawn from BindingDB's records for doi:10.1021/jm060314i (Cnrs, 2006).
